Results taken from patent publication US8735406B2, “8-oxodihydropurine derivative” (Dainippon Sumitomo Pharma Co., Ltd., priority 2009, dated 2014).
Read-outs that look alike come from different tables or passages of the source.

Molecular target: T1, FAAH (Rattus norvegicus, UniProt P97612)
T1 construct: Preparation of Rat Brain Membranes Preparations (FAAH Enzyme Solution); from tissue; host or cells: rat cerebrum (brain membrane preparation)
T1 sequence (P97612 1-579): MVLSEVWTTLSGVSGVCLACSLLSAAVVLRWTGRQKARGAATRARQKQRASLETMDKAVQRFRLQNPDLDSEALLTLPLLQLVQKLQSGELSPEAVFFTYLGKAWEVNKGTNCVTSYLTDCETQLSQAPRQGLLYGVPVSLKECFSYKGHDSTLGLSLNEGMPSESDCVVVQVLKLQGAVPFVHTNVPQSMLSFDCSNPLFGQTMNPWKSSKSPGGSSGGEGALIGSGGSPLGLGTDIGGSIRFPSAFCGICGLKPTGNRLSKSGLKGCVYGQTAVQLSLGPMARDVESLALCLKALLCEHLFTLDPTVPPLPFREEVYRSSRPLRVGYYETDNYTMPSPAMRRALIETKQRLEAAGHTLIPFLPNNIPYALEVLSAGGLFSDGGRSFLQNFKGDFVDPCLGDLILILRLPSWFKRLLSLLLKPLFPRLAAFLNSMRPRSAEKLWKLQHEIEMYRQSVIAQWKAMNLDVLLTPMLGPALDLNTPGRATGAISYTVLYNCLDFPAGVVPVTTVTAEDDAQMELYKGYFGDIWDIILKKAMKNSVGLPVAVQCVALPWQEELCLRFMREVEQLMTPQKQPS
Experiment: Determination of FAAH inhibitory activity in rat (rat brain membrane preparations, [3H]-anandamide hydrolysis)
Format: biochemical
Conditions: for inhibition at 0.1 µM: read-out: FAAH Inhibition, Inhibition Rate at 100 nM; for IC50: test substance 0.1 nM to 1 μM
Description: Determination of FAAH Inhibitory Activity in Rat
The preparation of rat brain membranes preparations and the determination of FAAH inhibitory activity were carried out according to the Jonsson et al. method [Br. J. Pharmacol., 133, 1263 (2001)].
(1) Preparation of Rat Brain Membranes Preparations (FAAH Enzyme Solution)
The cerebrum was extracted from rats and was freeze-stored at −80° C. To the frozen cerebrum was added 4° C. enzyme homogenization buffer (20 mM HEPES-buffer pH 7.0, 1 mM MgCl2) and the mixture was homogenized using a homogenizer in ice and the homogenates were centrifuged (36,000×g for 20 minutes). After repeating operations of homogenization and centrifugation, the tissue pellets were re-suspended with 4° C. enzyme homogenization buffer. The re-suspensions were incubated at 37° C. for 15 minutes and were centrifuged (36,000×g for 20 minutes), and the resulting tissue membranes were then re-suspended with enzyme solution preparation buffer (50 mM Tris-HCl buffer pH 7.4, 1 mM EDTA, 3 mM MgCl2). The protein concentration in the resulting membrane preparations were determined according to a colorimetry method (BCA Protein Assay: Pierce Inc.) and the preparations were freeze-stored at −80° C. until used for assay.
(2) Screening of Substances for Inhibiting FAAH Activity
To the above membrane preparations (final concentration 100 μg/mL) were added a solution of test substances in DMSO (final concentration in DMSO 1%) and an assay buffer (for final preparation; 22 mM Tris-HCl (pH 7.6), 1.4 mM EDTA, 1.5% BSA, 0.6 mM MgCl2) and the resulting mixtures were preincubated at 37° C. for 10 minutes. Thereto was added a substrate solution (for final preparation; 2 nM [^3H]-Anandamide (American Radiolabeled Chemicals Inc.)+2 μM Anandamide (Sigma-Aldrich Co.)) (final assay volume of 200 μL) and the resulting mixtures were incubated at 37° C. for 10 minutes. Here in control experiment, DMSO was added instead of the solution of test substance in DMSO. Also in blank experiment, DMSO was added instead of the solution of test substance in DMSO and an enzyme solution preparation buffer was also added instead of the membrane preparations. After the incubation, thereto was added a 400 μL ice-cooled solution of chloroform and methanol (1:1 ratio by volume) and the resulting mixtures were stirred. An ethanolamine (ethanolamine-1-[^3H]) as a decomposed product was separated into an upper layer (water/methanol layer) by centrifugation (1,000×g for 10 minutes). The upper layer 200 μL was transferred into 96 well Deepwell Luma Plate-96 (PerkinElmer Inc.) and the radioactivity was measured by microplate scintillation counter (TopCount NXT™: […].). The substances showing a lower measured value compared to those of control were selected as the compound having a FAAH inhibitory activity.
(3) Determination of IC50 Value
The test substances were prepared such that the final concentration of the compounds is within the range of 0.1 nM to 1 μM and were then examined on the effect on FAAH activity according to the above-mentioned protocol.

[1] = rat brain membrane preparations, 100 nM test substance
[2] = rat brain membrane preparations, read-out: FAAH Inhibition IC50

Row | SMILES | inhibition at 0.1 µM [1] | IC50 [2] | inhibition at 0.1 µM | IC50 (FAAH Inhibition IC50, rat brain membrane preparations)
1 | COc1cccc(-c2ncc3c(n2)n(C)c(=O)n3C(=O)N2CC[C@H](F)C2)c1 [Example 63, 7-{[(3S)-3-Fluoropyrrolidin-1-yl]carbonyl}-2-(3-methoxyphenyl)-9-methyl-7,9-dihydro-8H-purine-8-one] | 100% | 17 nM | – | –
2 | COc1cccc(-c2ncc3c(n2)n(C)c(=O)n3C(=O)N(C)CCOc2ccccc2)c1 [Example 65, 2-(3-Methoxyphenyl)-N,9-dimethyl-8-oxo-N-(2-phenoxyethyl)-8,9-dihydro-7H-purine-7-carboxamide] | 98% | 3 nM | – | –
3 | COc1cccc(-c2ncc3c(n2)n(C)c(=O)n3C(=O)N2CCC(Cc3ccccc3)CC2)c1 [Example 66, 7-[(4-Benzylpiperidin-1-yl)carbonyl]-2-(3-methoxyphenyl)-9-methyl-7,9-dihydro-8H-purine-8-one] | 93% | 46 nM | – | –
4 | COc1cccc(-c2ncc3c(n2)n(C)c(=O)n3C(=O)N2CCN(CCc3ccccc3)CC2)c1 [Example 67, 2-(3-Methoxyphenyl)-9-methyl-7-{[4-(2-phenylethyl-)piperazin-1-yl]carbonyl}-7,9-dihydro-8H-purine-8-one] | 97% | 7 nM | – | –
5 | COc1cccc(-c2ncc3c(n2)n(C)c(=O)n3C(=O)N2CCC(CCc3ccc(Cl)cc3)CC2)c1 [Example 68, 7-({4-[2-(4-Chlorophenyl)ethyl]piperidin-1-yl}carbonyl)-2-(3-methoxyphenyl)-9-methyl-7,9-dihydro-8H-purine-8-one] | 98% | 6 nM | – | –
6 | COc1cccc(-c2ncc3c(n2)n(C)c(=O)n3C(=O)N(C)CCc2ccc(Cl)cc2)c1 [Example 69, N-[2-(4-Chlorophenyl)ethyl]-2-(3-methoxyphenyl)-N,9-dimethyl-8-oxo-8,9-dihydro-7H-purine-7-carboxamide] | – | 2 nM | 101% | –
7 | CCN(CC)C(=O)n1c(=O)n(C)c2nc(-c3cccc(OC)c3)ncc21 [Example 70] | 41% | > 100 nM | – | –
8 | COc1cccc(-c2ncc3c(n2)n(C)c(=O)n3C(=O)N(C)Cc2ccc(F)cc2)c1 [Example 71, N-(4-Fluorobenzyl)-2-(3-methoxyphenyl)-N,9-dimethyl-8-oxo-8,9-dihydro-7H-purine-7-carboxamide] | 103% | 9 nM | – | –
9 | COc1cccc(-c2ncc3c(n2)n(C)c(=O)n3C(=O)N(C)Cc2cccc(F)c2)c1 [Example 72, N-(3-Fluorobenzyl)-2-(3-methoxyphenyl)-N,9-dimethyl-8-oxo-8,9-dihydro-7H-purine-7-carboxamide] | 99% | 23 nM | – | –
10 | COc1cccc(CN(C)C(=O)n2c(=O)n(C)c3nc(-c4cccc(OC)c4)ncc32)c1 [Example 73, N-(3-Methoxybenzyl)-2-(3-methoxyphenyl)-N,9-dimethyl-8-oxo-8,9-dihydro-7H-purine-7-carboxamide] | 89% | 45 nM | – | –
11 | COc1cccc(-c2ncc3c(n2)n(C)c(=O)n3C(=O)N(C)CCc2ccc(F)cc2)c1 [Example 74, N-[2-(4-Fluorophenyl)ethyl]-2-(3-methoxyphenyl)-N,9-dimethyl-8-oxo-8,9-dihydro-7H-purine-7-carboxamide] | – | < 1 nM | 104% | –
12 | COc1cccc(-c2ncc3c(n2)n(C)c(=O)n3C(=O)N(C)CCc2cccc(F)c2)c1 [Example 75, N-[2-(3-Fluorophenyl)ethyl]-2-(3-methoxyphenyl)-N,9-dimethyl-8-oxo-8,9-dihydro-7H-purine-7-carboxamide] | – | < 1 nM | 103% | –
13 | COc1cccc(-c2ncc3c(n2)n(C)c(=O)n3C(=O)N(C)CCc2cccc(Cl)c2)c1 [Example 76, N-[2-(3-Chlorophenyl)ethyl]-2-(3-methoxyphenyl)-N,9-dimethyl-8-oxo-8,9-dihydro-7H-purine-7-carboxamide] | – | – | 102% | 3 nM
14 | COc1cccc(-c2ncc3c(n2)n(C)c(=O)n3C(=O)N(C)CCOc2ccc(Cl)cc2)c1 [Example 77, N-[2-(4-Chlorophenoxy)ethyl]-2-(3-methoxyphenyl)-N,9-dimethyl-8-oxo-8,9-dihydro-7H-purine-7-carboxamide] | 116% | 3 nM | – | –
15 | COc1cccc(-c2ncc3c(n2)n(C)c(=O)n3C(=O)N(C)Cc2ccc(Cl)cc2)c1 [Example 78, N-(4-Chlorobenzyl)-2-(3-methoxyphenyl)-N,9-dimethyl-8-oxo-8,9-dihydro-7H-purine-7-carboxamide] | 108% | 10 nM | – | –
16 | COc1cccc(-c2ncc3c(n2)n(C)c(=O)n3C(=O)N(C)Cc2cccc(Cl)c2)c1 [Example 79, N-(3-Chlorobenzyl)-2-(3-methoxyphenyl)-N,9-dimethyl-8-oxo-8,9-dihydro-7H-purine-7-carboxamide] | 87% | 51 nM | – | –
17 | COc1ccc(CN(C)C(=O)n2c(=O)n(C)c3nc(-c4cccc(OC)c4)ncc32)cc1 [Example 80, N-(4-Methoxybenzyl)-2-(3-methoxyphenyl)-N,9-dimethyl-8-oxo-8,9-dihydro-7H-purine-7-carboxamide] | 92% | 44 nM | – | –
18 | COc1cccc(-c2ncc3c(n2)n(C)c(=O)n3C(=O)N(C)Cc2ccc(C(F)(F)F)cc2)c1 [Example 81, 2-(3-Methoxyphenyl)-N,9-dimethyl-8-oxo-N-[4-(trifluoromethyl)benzyl]-8,9-dihydro-7H-purine-7-carboxamide] | 94% | 11 nM | – | –
19 | COc1cccc(-c2ncc3c(n2)n(C)c(=O)n3C(=O)N(C)Cc2cccc(C(F)(F)F)c2)c1 [Example 82, 2-(3-Methoxyphenyl)-N,9-dimethyl-8-oxo-N-[3-(trifluoromethyl)benzyl]-8,9-dihydro-7H-purine-7-carboxamide] | 90% | 36 nM | – | –
20 | COc1cccc(-c2ncc3c(n2)n(C)c(=O)n3C(=O)N(C)Cc2ccc(OC(F)(F)F)cc2)c1 [Example 83, 2-(3-Methoxyphenyl)-N,9-dimethyl-8-oxo-N-[4-(trifluoromethoxy)benzyl]-8,9-dihydro-7H-purine-7-carboxamide] | 93% | 25 nM | – | –
21 | COc1cccc(-c2ncc3c(n2)n(C)c(=O)n3C(=O)N2CCN(Cc3ccc(F)cc3)CC2)c1 [Example 84, 7-{[4-(4-Fluorobenzyl)piperazin-1-yl]carbonyl}-2-(3-methoxyphenyl)-9-methyl-7,9-dihydro-8H-purine-8-one] | – | 13 nM | 98% | –
22 | COc1cccc(-c2ncc3c(n2)n(C)c(=O)n3C(=O)N2CCN(Cc3cccc(F)c3)CC2)c1 [Example 85, 7-{[4-(3-Fluorobenzyl)piperazin-1-yl]carbonyl}-2-(3-methoxyphenyl)-9-methyl-7,9-dihydro-8H-purine-8-one] | – | 31 nM | 93% | –
